Patent US12251422B2, “Compositions and methods for treating neurological and other disorders” (Rush University Medical Center, priority 2018, dated 2025)

How the values were obtained:
p65 and p50 = assay: Nuclear translocation of p65 and p50 in BV-2 microglial cells (Western blot); assay type: cell-based; conditions: 10 μM peptide 1 h, 1 μM fibrillar Aβ1-42
Procedure: FIG. 15 (A-F). Effect of wtTIDM peptide on fibrillar Aβ- and LPS-induced nuclear translocation of p65 and p50 in microglial cells. BV-2 microglial cells preincubated with 10 μM wtTIDM peptide for 1 h were stimulated with either 1 μM fibrillar Aβ1-42 (A-C) or 1 μg/ml LPS (D-F) under serum-free condition. At different minute intervals, levels of p65 and p50 (A, fibrillar Aβ; D, LPS) were monitored in nuclear extracts by Western blot. Histone H3 was run as a loading control. Bands were scanned and values of p65/H3 (B & E) and p50/H3 (C & F) are presented as relative to control (n=2 replicates/condition in 3 independent experiments). ap<0.05, bp<0.001 vs control; cp<0.01 vs 30 min stimulation; dp<0.05 vs 15 min stimulation; NS, not significant by two-sample t-tests.

5×FAD Tg mice = assay: Barnes maze and T maze in 5×FAD Tg mice; assay type: in vivo, mouse
Text: FIG. 6 (A-N). Intranasal delivery of wtTIDM, but not mTIDM, peptide inhibits neuronal apoptosis in vivo in the hippocampus and improves memory and learning in Tg mice. […] After 30 d of treatment, mice were sacrificed and hippocampal sections were double-labeled for TUNEL & NeuN (A). […] Hippocampal extracts of all groups of mice (n=4) were immunoblotted for cleaved caspase 3 (D). Actin was run as loading control. E) Bands were scanned and values (cleaved caspase 3/Actin) are presented as relative to non-Tg control. […] Protein levels of PSD-95. NR2A and GluR1 were monitored in hippocampal extracts by Western blot (F). Bands were scanned and values (G, PSD-95/Actin; H, NR2A/Actin; I, GluR1/Actin) are presented as relative to non-Tg control. […] Mice were tested for Barnes maze (J, latency; K, number of errors made) and T maze (L, number of positive turns; M, number of negative turns). Short-term memory was also monitored by novel object recognition test, which is represented by discrimination index (N). Eight mice (n=8) were used in each group and results were analyzed by one-way ANOVA.
Maze experiments were performed as described by us (52, 57). Briefly, for Barnes maze, mice were trained for 2 consecutive days followed by examination on day 3. […]

NF-κB = NF-κB activation by EMSA in primary microglia from WT mice; assay type: cell-based, mouse; conditions: peptide 1 h, 1 μM fibrillar Aβ1-42 for 1 h
Procedure: FIG. 16 (A-F). […] Primary microglia isolated from WT (A) and TLR2 (−/−) (B) mice were treated with different concentrations of wtTIDM peptide for 1 h followed by stimulation with 1 μM fibrillar Aβ1-42 under serum-free condition. After 1 h of stimulation, the activation of NF-κB was monitored by EMSA. WT (C & D) and TLR2 (−/−) (E & F) microglia were treated with different concentrations of wtTIDM and mTIDM peptides for 1 h followed by stimulation with 1 μM fibrillar Aβ1-42 under serum-free condition. After 18 h of stimulation, levels of TNFα (C & E) and IL-1β (D & F) were monitored in supernatants by ELISA (n=2 replicates/condition in 3 independent experiments). ap<0.001 vs control; bp<0.001 vs stimuli by two-sample t-tests.
Nuclear extracts were isolated and EMSA was carried out as described before (22, 23).

mice with CIA = assay: Collagen-induced arthritis (CIA) in DBA/1J mice; assay type: in vivo, mouse; conditions: 1 mg/kg body wt/d i.p. from 29 dpi
Text: FIG. 7 (A-V). The wtTIDM, but not mTIDM, peptide protects mice from experimental allergic encephalomyelitis (EAE) and collagen-induced arthritis (CIA). […] Mice (n=6 per group in two independent experiments) were scored daily. […] On 22 dpi, general motor activities were monitored using the Ethovision XT 13.0 Open Field Activity System (Noldus) (B, heat-map images representing overall motor activities; C, distance travelled; D, rearing; E, velocity; F, acceleration) and rotorod (G). Foot print analysis (H, stride length; I, print length; J, sway length; K, toe spread) was also performed, L) CIA was induced in male DBA/1J mice by bovine type II collagen immunization and from 29 dpi, mice were treated with wtTIDM and mTIDM peptides (1 mg/kg body wt/d) via i.p. injection. Mice (n=6 per group in two independent experiments) were scored daily. […] On 60 dpi, general motor activities were monitored by Ethovision System (M, heat-map images representing overall motor activities; N, distance travelled; O, rearing; P, velocity), rotorod (Q) and grip strength (R). Foot print analysis (S, stride length; T, print length; U, sway length; V, toe spread) was also performed. Six mice (n=6 per group) were used in two independent experiments. ap<0.001 & bp<0.05 vs control; cp<0.001 & dp<0.05 vs EAE or CIA by two-sample t-tests.
FIG. 26 (A-D). Footprint analysis of mice with CIA after treatment with wtTIDM and mTIDM peptides. On the walking track, we applied white paper strips and obtained the footprints of mice of different groups (A, control; B, CIA; C, CIA+wtTIDM; D, CIA+mTIDM) on paper using black ink. A total of 30-40 steps for each group were determined. Four different footprint measurements (SL, PL, SWL, and TS) were calculated in centimeters from the recorded prints of mice. Six mice (n=6 per group) were used in two independent experiments.
Male DBA/1J mice (8-9 week old) were immunized intradermally at the base of the tail with 100 μg of bovine type II collagen emulsified in […] Freund's Adjuvant and M. tuberculosis H37RA. […]

## CC[C@H](C)[C@H](NC(=O)[C@H](CCCCN)NC(=O)[C@@H](NC(=O)[C@H](CCC(N)=O)NC(=O)[C@H](CCCNC(=N)N)NC(=O)[C@@H](N)CC(=O)O)[C@@H](C)CC)C(=O)N[C@@H](Cc1c[nH]c2ccccc12)C(=O)N[C@@H](Cc1ccccc1)C(=O)N[C@@H](CCC(N)=O)C(=O)N[C@@H](CC(N)=O)C(=O)N[C@@H](CCCNC(=N)N)C(=O)N[C@@H](CCCNC(=N)N)C(=O)N[C@@H](CCSC)C(=O)N[C@@H](CCCCN)C(=O)N[C@@H](Cc1c[nH]c2ccccc12)C(=O)N[C@@H](CCCCN)C(=O)N[C@@H](CCCCN)C(=O)N1CCC[C@H]1C(=O)NCC(=O)N[C@@H](C)C(=O)N[C@@H](Cc1c[nH]cn1)C(=O)N[C@@H](CCC(N)=O)C(=O)N[C@@H](CCCCN)C(=O)O [wtTIDM, drqikiwfqnrrmkwkkPGAHQK]
p65 and p50
  inhibition of nuclear translocation of p65 and p50, fibrillar Aβ1-42: inhibited
5×FAD Tg mice; 0.1 mg/kg body wt/2 d intranasal, 30 d
  memory functions in Barnes maze (latency, number of errors): significantly improved
5×FAD Tg mice; summary statement
  spatial learning and memory in Tg mice: improved
NF-κB
  inhibition of fibrillar Aβ1-42-induced activation of NF-κB in WT primary microglia: inhibited
Mice with CIA
  clinical symptoms of CIA: decreased
Mice with CIA; 60 dpi
  footprint behavior in CIA mice: improved
  locomotor activities in CIA mice: enhanced
